# Source: ChEMBL document CHEMBL5233211, “Progress in PD-1/PD-L1 pathway inhibitors: From biomacromolecules to small molecules” (Eur J Med Chem, 2020)
# Numbered stars: 1 amine (or outer) side, 2 acyl side, 3 side chain; on linkers, the order of the positions; unused ones are H or OH. Bridge positions count the residues as written; N and C are the ends. Square brackets hold non-standard residues; d marks the D form. Peptide text beside a SMILES is read from it. ξ: configuration not given here. X1 = O=C(C(CO)NN[*:1])[*:2]; ξY = NC(Cc1ccc(O)cc1)C(=O)O; ξQ = NC(=O)CCC(N)C(=O)O; ξN = NC(=O)CC(N)C(=O)O
# Molecular target: Programmed cell death 1 ligand 1 (Mus musculus, UniProt Q9EP73)
# Sequence (Q9EP73 whole entry): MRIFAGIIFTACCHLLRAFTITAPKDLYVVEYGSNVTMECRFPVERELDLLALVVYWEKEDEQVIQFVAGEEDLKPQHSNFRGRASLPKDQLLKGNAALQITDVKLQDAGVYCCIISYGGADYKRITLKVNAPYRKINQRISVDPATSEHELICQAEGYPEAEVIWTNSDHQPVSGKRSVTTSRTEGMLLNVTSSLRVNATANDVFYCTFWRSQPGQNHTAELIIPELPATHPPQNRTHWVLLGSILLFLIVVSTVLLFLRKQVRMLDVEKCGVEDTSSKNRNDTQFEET
# Test: Inhibition of PD-L1 in mouse splenocytes assessed as increase in INFgamma release
# Type: cell-based, Splenocyte
# Details: not given
row,Compound,EC50 [nM]
1,C[C@H](O)[C@H](NC(=O)N[C@@H](CC(N)=O)C(=O)NNC(=O)[C@@H](N)CO)C(=O)O,30
2,CC(O)[C@H](NC(=O)N[C@@H](CC(N)=O)c1nnc([C@@H](N)CO)s1)C(=O)O (stereo partly specified),33.8
3,C[C@H](O)[C@@H](N)C(=O)NNC(=O)[C@@H](CC(N)=O)NC(=O)N[C@H](CO)C(=O)O,40
4,C[C@@H](O)[C@H](N)C(=O)NNC(=O)[C@H](CC(N)=O)NC(=O)N[C@@H](CO)C(=O)O,27

# Molecular target: T1, Programmed cell death 1 ligand 2 (Mus musculus, UniProt Q9WUL5)
# T1 sequence (Q9WUL5 whole entry): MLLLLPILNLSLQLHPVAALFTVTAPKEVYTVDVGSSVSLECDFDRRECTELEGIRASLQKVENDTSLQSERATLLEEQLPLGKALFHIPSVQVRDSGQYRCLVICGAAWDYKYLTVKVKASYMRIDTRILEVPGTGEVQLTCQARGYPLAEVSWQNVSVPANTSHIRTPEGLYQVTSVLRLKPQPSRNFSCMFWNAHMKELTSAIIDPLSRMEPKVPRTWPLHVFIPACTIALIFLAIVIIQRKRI
# Test: Inhibition of PD-L2 in mouse splenocytes assessed as increase in INFgamma production
# Type: cell-based, Splenocyte
# Details: not given
row,Compound,EC50 [nM]
1,CC(O)[C@H](NC(=O)N[C@@H](CC(N)=O)c1nnc([C@@H](N)CO)s1)C(=O)O (stereo partly specified),55

# Molecular target: Programmed cell death 1 ligand 1 (Homo sapiens, UniProt Q9NZQ7)
# Sequence (Q9NZQ7 whole entry): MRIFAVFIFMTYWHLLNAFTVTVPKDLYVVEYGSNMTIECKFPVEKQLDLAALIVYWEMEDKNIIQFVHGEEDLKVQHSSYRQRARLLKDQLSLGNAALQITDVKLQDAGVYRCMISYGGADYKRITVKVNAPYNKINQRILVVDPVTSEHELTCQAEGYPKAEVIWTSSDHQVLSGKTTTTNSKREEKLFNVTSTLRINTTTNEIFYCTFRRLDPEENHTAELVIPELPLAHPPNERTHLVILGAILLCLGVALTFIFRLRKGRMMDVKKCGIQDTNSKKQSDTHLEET
# Test: Inhibition of PD-L1 in human PBMCs assessed as increase in INFgamma production
# Type: cell-based, PBMC
# Details: not given
row,Compound,EC50 [nM]
1,CC(O)[C@H](NC(=O)N[C@@H](CC(N)=O)c1nnc([C@@H](N)CO)s1)C(=O)O (stereo partly specified),56.4

# Test system: not listed separately
# Test: Induction of mouse splenocytes proliferation at 100 nM
# Type: functional, Splenocyte
# Details: not given
row,Compound,Activity [%]
1,CC(O)[C@H](NC(=O)N[C@@H](CCC(N)=O)c1nnc([C@@H](N)C(C)O)o1)C(=O)O (stereo partly specified),97
2,N[C@@H](Cc1ccc(O)cc1)c1noc([C@@H]2CCCN2C(=O)N[C@@H](Cc2ccc(O)cc2)C(=O)O)n1,91
3,C[C@H](O)[C@H](NC(=O)N[C@@H](Cc1ccccc1)c1nc([C@@H](N)CO)no1)C(=O)O,92
4,C[C@@H](O)[C@H](N)c1noc([C@H](Cc2ccc(O)cc2)NC(=O)N2CCC[C@H]2C(=O)O)n1,99
5,CCN(Cc1ccccc1)C(=O)N[C@@H](CC(N)=O)c1nc([C@@H](N)CO)no1,92

# Molecular target: T2, Programmed cell death 1 ligand 2 (Homo sapiens, UniProt Q9BQ51)
# T2 sequence (Q9BQ51 whole entry): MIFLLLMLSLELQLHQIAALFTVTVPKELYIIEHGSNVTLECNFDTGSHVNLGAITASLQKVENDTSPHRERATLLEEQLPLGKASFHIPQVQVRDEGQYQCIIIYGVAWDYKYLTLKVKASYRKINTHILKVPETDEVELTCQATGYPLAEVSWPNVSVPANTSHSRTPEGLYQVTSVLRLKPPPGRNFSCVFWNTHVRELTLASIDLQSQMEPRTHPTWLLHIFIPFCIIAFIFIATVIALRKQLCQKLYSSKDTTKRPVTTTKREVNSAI
# Test: Inhibition of PD-L2 in human PBMCs assessed as increase in INFgamma production
# Type: cell-based, PBMC
# Details: not given
row,Compound,EC50 [nM]
1,CC(O)[C@H](NC(=O)N[C@@H](CC(N)=O)c1nnc([C@@H](N)CO)s1)C(=O)O (stereo partly specified),149

# Test system: CT26
# Test: Antitumor activity against mouse CT26 cells implanted in mouse at 3 mg/kg administered for 25 days
# Type: functional
# Details: time 25 day
row,Compound,Activity [%]
1,C[C@H](O)[C@H](NC(=O)N[C@@H](CC(N)=O)C(=O)NNC(=O)[C@@H](N)CO)C(=O)O,46

# Molecular target: T3, Programmed cell death protein 1/Programmed cell death 1 ligand 1 (Homo sapiens, UniProt Q15116+Q9NZQ7)
# T3 sequence (Q15116 whole entry): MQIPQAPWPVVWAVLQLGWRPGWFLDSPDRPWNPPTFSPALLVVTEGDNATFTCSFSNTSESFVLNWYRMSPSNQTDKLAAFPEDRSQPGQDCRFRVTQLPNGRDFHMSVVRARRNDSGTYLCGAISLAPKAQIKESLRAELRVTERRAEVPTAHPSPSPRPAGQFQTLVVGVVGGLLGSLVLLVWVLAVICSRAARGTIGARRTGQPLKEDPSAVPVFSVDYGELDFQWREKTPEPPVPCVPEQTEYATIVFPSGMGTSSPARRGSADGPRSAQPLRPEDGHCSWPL
# T3 sequence (Q9NZQ7 whole entry): as the sequence (Q9NZQ7 whole entry) above
# Test: Inhibition of recombinant human PD-1/PD-L1 interaction relative to control
# Type: protein-complex assay
# Details: concentration not given here
row,Compound,inhibition [%]
1,Cc1nnc(NS(=O)(=O)c2ccc(N)cc2)s1,29.3
2,CNCCOc1cccc(OC(=O)N(C)C)c1,18.5
3,CCCCN(CCCC)CCOc1cccc(OC(=O)N(C)C)c1,41.9
4,COc1cc(NS(=O)(=O)c2ccc(N)cc2)ncn1,10.2

# Test system: not listed separately
# Test: Inhibition of VISTA/PD-1 interaction in human PBMCs assessed as increase in INFgamma production
# Type: cell-based
# Details: PBMC
row,EC50 [nM],Compound
1,49.4,CC(O)[C@H](NC(=O)N[C@@H](CC(N)=O)c1nnc([C@@H](N)CO)s1)C(=O)O (stereo partly specified)

# Molecular target: not listed separately
# Test: Binding affinity to human PD-1
# Details: not given
row,Kd [nM],Compound
1,22400,N[C@@H](Cc1c[nH]c2ccccc12)C(=O)N[C@@H](CC(=O)O)C(=O)N[C@@H](Cc1ccc(O)cc1)C(=O)N[C@@H](CC(=O)O)C(=O)O (H-WDYD-OH)
2,3140,H-FNWDYSLEELREKAKYK-OH
3,21600,H-LDYGDKREGQMAE-OH
4,1380,CC(C)C[C@H](NC(=O)[C@H](CCC(N)=O)NC(=O)[C@H](C)NC(=O)[C@H](CCCNC(=N)N)NC(=O)[C@H](CCC(N)=O)NC(=O)[C@H](CO)NC(=O)[C@H](CC(N)=O)NC(=O)[C@H](Cc1ccc(O)cc1)NC(=O)[C@H](CC(=O)O)NC(=O)[C@H](Cc1c[nH]c2ccccc12)NC(=O)C(CC(N)=O)NC(=O)CN)C(=O)N[C@@H](Cc1ccc(O)cc1)C(=O)N[C@@H](CC(N)=O)C(=O)N[C@@H](CCC(N)=O)C(=O)O (stereo partly specified) (H-G[ξN]WDYNSQRAQLYNQ-OH)
5,3130,CC[C@H](C)[C@H](NC(=O)[C@H](CC(N)=O)NC(=O)CNC(=O)[C@H](Cc1cnc[nH]1)NC(=O)[C@H](CCCNC(=N)N)NC(=O)C(Cc1ccc(O)cc1)NC(=O)[C@H](CC(=O)O)NC(=O)[C@H](CCCCN)NC(=O)[C@H](CCC(=O)O)NC(=O)[C@@H](N)[C@@H](C)O)C(=O)N[C@@H](CCCNC(=N)N)C(=O)N[C@@H](CCSC)C(=O)N[C@@H](CCCCN)C(=O)N[C@@H](CC(C)C)C(=O)N[C@@H](C)C(=O)N[C@@H](Cc1ccc(O)cc1)C(=O)N[C@@H](CC(=O)O)C(=O)N[C@@H](CC(C)C)C(=O)O (stereo partly specified) (H-TEKD[ξY]RHGNIRMKLAYDL-OH)
6,28300,H-GIDYEERWK-OH
7,3320,H-LDYVNRRKMYQ-OH
8,339000,H-FNWDYSWKSERLKEAYDL-OH

# Molecular target: T3, Programmed cell death protein 1/Programmed cell death 1 ligand 1
# Test: Inhibition of PD-1/PD-L1 interaction in human MDA-MB-231 cells assessed as increase in mouse splenocytes proliferation
# Type: cell-based
# Set-up: concentration or dose not given beside the values
# Details: not given
row,Compound,Activity [%]
1,C[C@@H](O)[C@@H]1NC(=O)C(N[C@@H](CO)C(=O)O)CCCCNC(=O)CCC(C(=O)N[C@@H](CO)C(=O)N[C@@H](Cc2ccccc2)C(N)=O)NC(=O)[C@H](CO)NC1=O (stereo partly specified),84
2,C[C@@H](O)[C@H](NC(=O)[C@H](CO)NC(CCC(=O)NCCCCNC(=O)C(Cc1ccccc1)NC(=O)C(N)CO)C(N)=O)C(=O)N[C@@H](CC(N)=O)C(=O)N[C@@H](CO)C(=O)O (stereo partly specified),87
3,C[C@@H](O)[C@@H]1NC(=O)C(N[C@@H](CO)C(=O)O)CCC(=O)NCCCCC(C(=O)N[C@@H](CO)C(=O)N[C@@H](Cc2ccccc2)C(N)=O)NC(=O)[C@H](CO)NC1=O (stereo partly specified),78
4,CC[C@H](C)[C@H](NC1CCC(=O)NCCCCC(C(=O)N[C@@H](CO)C(=O)N[C@@H](Cc2ccccc2)C(N)=O)NC(=O)[C@H](CO)NC(=O)[C@H]([C@@H](C)O)NC1=O)C(=O)O (stereo partly specified),76
5,C[C@@H](O)[C@@H]1NC(=O)[C@H](CC(N)=O)NC(=O)C(CO)NNC(=O)C(CCC(N)=O)NC(=O)[C@H](Cc2ccccc2)NC(=O)[C@H](CO)NC(=O)[C@H](CCC(=O)O)NC(=O)[C@H](CO)NC1=O (stereo partly specified) (cyclo(ESF[ξQ][X1]NTS)),76
6,CC[C@H](C)[C@H](NC1CCC(=O)NCCCCC(C(=O)N[C@@H](CO)C(=O)NC(CCC(N)=O)C(=O)O)NC(=O)[C@H](CO)NC(=O)[C@H](CCSC)NC1=O)C(=O)O (stereo partly specified),76

# Molecular target: T3, Programmed cell death protein 1/Programmed cell death 1 ligand 1
# Test: Inhibition of human PD-1/PD-L1 interaction
# Type: protein-complex assay
# Details: not given
Compound,IC50 [nM],EC50 [nM]
Cc1c(-c2ccccc2)cccc1-c1nc2cc(CNCCO)ccc2o1,< 10,
CC[C@H](C)[C@@H]1NC(=O)[C@H](CC(C)C)NC(=O)[C@H](Cc2ccccc2)NC(=O)CSC[C@@H](C(=O)NCC(N)=O)NC(=O)[C@H](CCCNC(=N)N)NC(=O)[C@H](Cc2ccccc2)NC(=O)[C@H](C(C)C)NC(=O)[C@H](CCCNC(=N)N)NC(=O)[C@H](CC(=O)O)NC(=O)[C@H](CCCNC(=N)N)NC(=O)[C@H]([C@@H](C)CC)NC(=O)[C@H](C(C)C)NC1=O ({CH2CO}-FLIVIRDRVFRCG-NH2; thioether N-12),,0.72
Cc1c(-c2nc3cc(CN4CC[C@@](C)(C(=O)O)C4)cc(C#N)c3o2)cccc1-c1cccc(-c2nc3c(s2)CN(C(=O)CN(C)C(C)C)C3)c1C,< 10,
Cc1c(-c2ccccc2)cccc1-c1nc2cc(CNCCO)c(OCCN3CCOCC3)cc2o1,< 10,
Cc1c(-c2ccc3c(c2)OCCO3)cccc1-c1nc2cc(CNCCO)c(OCC#N)cc2o1,< 10,
Cc1c(-c2nc3c(o2)CN(C(=O)CN2CCC(O)CC2)C3)cccc1-c1cccc(-c2nc3cc(CN4CC[C@@](C)(C(=O)O)C4)cc(C#N)c3o2)c1C,< 10,
Cc1c(-c2ccc3c(c2)OCCO3)cccc1-c1nc2cc(CNCCO)cc(C)c2o1,< 10,
Cc1c(Nc2nccc3cc(CN4CC[C@@H](O)C4)cnc23)cccc1-c1cccc(-c2nc3cc(CN[C@H]4CC[C@@H](C(=O)O)C4)cc(C#N)c3o2)c1C,< 10,
Cc1c(Nc2nccc3cc(CN[C@H](C)CO)cnc23)cccc1-c1cccc(-c2nc3cc(CN4CCC(C(=O)O)CC4)cc(C#N)c3o2)c1C,< 10,
